Assay results published in patent US11826402B2, “Combination therapy involving antibodies against claudin 18.2 for treatment of metastatic pancreatic adenocarcinoma” (Astellas Pharma Inc., priority 2013, dated 2023).

What was measured:
Patu8902 = assay: IMAB362-mediated CDC assay (healthy human serum pool); assay type: cell-based
Protocol: (§1) In addition, the LVT cell lines and the parental strains were tested in CDC.
(§2) CHO-K1 cells stably transfected with CLDN18.2 (p740) and luciferase were used as assay positive controls in each assay (FIG. 23A). […] This is most likely due to the fact that neoplastic cells over-express one or more membrane bound complement inhibitory proteins (e.g. CD46, CD55 and CD59) (Geis et al., Curr Cancer Drug Targets, 2010 10:922-931). However, if expression of these inhibitory proteins on tumor cells affect clinical outcome of an antibody therapy is still contradictory (Dzietczenia et al. Med. Oncol. 2010, 27:743-6; Weng and Levy at al., Blood 2001 98:1352-7). In addition to the endogenous cell lines, all the LVT cell lines were tested in CDC assays.

MiaPaCa2 = assay: as above; assay type: cell-based
Protocol: as §1, §2

[1] = tested on: MiaPaCa-2-LVT, Suit2-LVT and CAPAN1-LVT; assay: IMAB362-mediated CDC assay, LVT cell lines; assay type: cell-based, human
Protocol: CDC was performed as follows.
as §2

NUGC-4 = assay: IMAB362-induced ADCC on gastric cancer cells, also with ZA/IL-2 cultivated PBMCs; assay type: cell-based, human
Protocol: Specific killing was determined in luciferase assays.

Panc02.03 = assay: IMAB362-mediated ADCC assay; assay type: cell-based, human; details: at least 2 donors
[2] = target: first extracellular domain (ECD1) of CLDN18.2 (Homo sapiens, UniProt P56856); assay: Target binding of IMAB362 (background)

For “IMAB362: chimeric IgG1 antibody directed against CLDN18.2, developed by Ganymed Pharmaceuticals AG”, the “CDC EC50” value (Patu8902) was “n.m”, the “CDC Max. lysis” value (Patu8902) was “n.m” and the “CDC EC50” value (MiaPaCa2) was “n.m”. The “CDC Max. lysis” value (MiaPaCa2) was “n.m”, the “CDC EC50” value ([1]; BxPC3 LVT) was “n.m” and the “CDC Max. lysis” value ([1]; BxPC3 LVT) was “n.m”. The “CDC EC50” value ([1]; CAPAN1-LVT) was 0.9701 µg/mL, the “CDC Max. lysis” value ([1]; CAPAN1-LVT) was 79.1% and the “CDC EC50” value ([1]; DANG-LVT) was “n.m”. The “CDC Max. lysis” value ([1]; DANG-LVT) was “n.m”, the “CDC EC50” value ([1]; HPAC-LVT) was “n.m” and the “CDC Max. lysis” value ([1]; HPAC-LVT) was “n.m”. The “CDC EC50” value ([1]; MiaPaCa2-LVT) was 0.34 µg/mL, the “CDC Max. lysis” value ([1]; MiaPaCa2-LVT) was 78.4% and the “CDC EC50” value ([1]; Patu8902-LVT) was 0.291 µg/mL. For the same substance, the “CDC Max. lysis” value ([1]; Patu8902-LVT) was 76.7%, the “CDC EC50” value ([1]; Suit2-LVT) was “n.m” and the “CDC Max. lysis” value ([1]; Suit2-LVT) was “n.m”. For the same substance, the “CDC EC50” value ([1]; YAPC-LVT) was “n.m”, the “CDC Max. lysis” value ([1]; YAPC-LVT) was “n.m” and the “ADCC activity with ZA/IL-2 cultivated PBMCs” value (NUGC-4; PBMCs cultivated 14 days with ZA/IL-2) was “Strong IMAB362-dependent ADCC activity”. The “maximum lysis rates (ADCC)” value (NUGC-4; up to 200 μg/ml, 24 hours, human PBMC E:T 40:1) was 80-100%, the “ADCC EC50” value (Panc02.03) was “n.m” and the “ADCC Max. lysis” value (Panc02.03) was “n.m”. For the same substance, the “recognition of ECD1 of CLDN18.2” value [2] was “high affinity and specificity”.
